# Data taken from PubChem BioAssay (NCI).
#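 Where inhibition never reached the appropriate level, the endpoint shown equals the highest concentration tested. Otherwise, values were interpolated linearly from a five-concentration, 48-hour dose response in 96-well plates. TGI is the concentration that stops growth completely.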
# Experiments:
# Experiment in all cases: DTP human tumour cell line panel, 48 h
# OVCAR-4 ovarian = test system: OVCAR-4 ovarian
# SNB-75 CNS = test system: SNB-75 CNS
# M14 melanoma = test system: M14 melanoma
# KM20L2 colon = test system: KM20L2 colon
# OVCAR-5 ovarian = test system: OVCAR-5 ovarian
# UACC-257 melanoma = test system: UACC-257 melanoma
# HOP-92 NSCLC = test system: HOP-92 NSCLC
# EKVX NSCLC = test system: EKVX NSCLC
# UACC-62 melanoma = test system: UACC-62 melanoma
# 786-0 renal = test system: 786-0 renal
# SK-MEL-5 melanoma = test system: SK-MEL-5 melanoma
# HCC-2998 colon = test system: HCC-2998 colon
# OVCAR-8 ovarian = test system: OVCAR-8 ovarian
# NCI-H226 lung = test system: NCI-H226 lung
# SW-620 colon = test system: SW-620 colon
# LXFL 529 NSCLC = test system: LXFL 529 NSCLC
# DLD-1 colon = test system: DLD-1 colon
# MOLT-4 leukemia = test system: MOLT-4 leukemia
# DMS 114 small cell lung = test system: DMS 114 small cell lung
# TK-10 renal = test system: TK-10 renal
# HOP-18 NSCLC = test system: HOP-18 NSCLC
# SK-MEL-2 melanoma = test system: SK-MEL-2 melanoma
# IGROV1 ovarian = test system: IGROV1 ovarian
# SN12C renal = test system: SN12C renal
# RXF 393 renal = test system: RXF 393 renal
# SNB-78 CNS = test system: SNB-78 CNS
# M19-MEL melanoma = test system: M19-MEL melanoma
# KM12 colon = test system: KM12 colon
# A549 NSCLC = test system: A549 NSCLC
# COLO 205 colon = test system: COLO 205 colon
# SF-268 CNS = test system: SF-268 CNS
# CCRF-CEM leukemia = test system: CCRF-CEM leukemia
# SK-MEL-28 melanoma = test system: SK-MEL-28 melanoma
# HCT-15 colon = test system: HCT-15 colon
# CAKI-1 renal = test system: CAKI-1 renal
# U251 CNS = test system: U251 CNS
# NCI-H460 lung = test system: NCI-H460 lung
# HOP-62 NSCLC = test system: HOP-62 NSCLC
# SF-539 CNS = test system: SF-539 CNS
# XF 498 CNS = test system: XF 498 CNS
# HCT-116 colon = test system: HCT-116 colon
# DMS 273 small cell lung = test system: DMS 273 small cell lung
# HL-60(TB) leukemia = test system: HL-60(TB) leukemia
# NCI-H23 lung = test system: NCI-H23 lung
# RPMI-8226 leukemia = test system: RPMI-8226 leukemia
# SK-OV-3 ovarian = test system: SK-OV-3 ovarian
# A498 renal = test system: A498 renal
# RXF-631 renal = test system: RXF-631 renal
# OVCAR-3 ovarian = test system: OVCAR-3 ovarian
# SF-295 CNS = test system: SF-295 CNS
# K-562 leukemia = test system: K-562 leukemia
# SNB-19 CNS = test system: SNB-19 CNS
# ACHN renal = test system: ACHN renal
# LOX IMVI melanoma = test system: LOX IMVI melanoma
# HT29 colon = test system: HT29 colon
# MALME-3M melanoma = test system: MALME-3M melanoma
# UO-31 renal = test system: UO-31 renal
# NCI-H522 lung = test system: NCI-H522 lung
# SR leukemia = test system: SR leukemia
smiles,measurement,setting,value
Cc1ccc(N=Nc2c(C)nn(-c3ccccc3)c2C)c(Br)c1,TGI,OVCAR-4 ovarian,> 100 µM
same,TGI,SNB-75 CNS,> 100 µM
same,TGI,M14 melanoma,> 100 µM
same,TGI,KM20L2 colon,> 100 µM
same,TGI,OVCAR-5 ovarian,> 100 µM
same,TGI,UACC-257 melanoma,> 100 µM
same,TGI,HOP-92 NSCLC,> 100 µM
same,TGI,EKVX NSCLC,> 100 µM
same,TGI,UACC-62 melanoma,> 100 µM
same,TGI,786-0 renal,> 100 µM
same,TGI,SK-MEL-5 melanoma,> 100 µM
same,TGI,HCC-2998 colon,> 100 µM
same,TGI,OVCAR-8 ovarian,> 100 µM
same,TGI,NCI-H226 lung,> 100 µM
same,TGI,SW-620 colon,> 100 µM
same,TGI,LXFL 529 NSCLC,> 100 µM
same,TGI,DLD-1 colon,> 100 µM
same,TGI,MOLT-4 leukemia,> 100 µM
same,TGI,DMS 114 small cell lung,> 100 µM
same,TGI,TK-10 renal,> 100 µM
same,TGI,HOP-18 NSCLC,> 100 µM
same,TGI,SK-MEL-2 melanoma,> 100 µM
same,TGI,IGROV1 ovarian,> 100 µM
same,TGI,SN12C renal,> 100 µM
same,TGI,RXF 393 renal,> 100 µM
same,TGI,SNB-78 CNS,> 100 µM
same,TGI,M19-MEL melanoma,> 100 µM
same,TGI,KM12 colon,> 100 µM
same,TGI,A549 NSCLC,> 100 µM
same,TGI,COLO 205 colon,> 100 µM
same,TGI,SF-268 CNS,> 100 µM
same,TGI,CCRF-CEM leukemia,> 100 µM
same,TGI,SK-MEL-28 melanoma,> 100 µM
same,TGI,HCT-15 colon,> 100 µM
same,TGI,CAKI-1 renal,> 100 µM
same,TGI,U251 CNS,> 100 µM
same,TGI,NCI-H460 lung,> 100 µM
same,TGI,HOP-62 NSCLC,> 100 µM
same,TGI,SF-539 CNS,> 100 µM
same,TGI,XF 498 CNS,> 100 µM
same,TGI,HCT-116 colon,> 100 µM
same,TGI,DMS 273 small cell lung,> 100 µM
same,TGI,HL-60(TB) leukemia,> 100 µM
same,TGI,NCI-H23 lung,> 100 µM
same,TGI,RPMI-8226 leukemia,> 100 µM
same,TGI,SK-OV-3 ovarian,> 100 µM
same,TGI,A498 renal,> 100 µM
same,TGI,RXF-631 renal,> 100 µM
same,TGI,OVCAR-3 ovarian,> 100 µM
same,TGI,SF-295 CNS,> 100 µM
same,TGI,K-562 leukemia,> 100 µM
same,TGI,SNB-19 CNS,> 100 µM
same,TGI,ACHN renal,> 100 µM
same,TGI,LOX IMVI melanoma,> 100 µM
same,TGI,HT29 colon,> 100 µM
same,TGI,MALME-3M melanoma,> 100 µM
CCOC(=O)[C@]12C3C=CC(C3)C1C(=O)C1OC12 (stereo not given in full),TGI,OVCAR-4 ovarian,> 100 µM
same,TGI,SNB-75 CNS,> 100 µM
same,TGI,UO-31 renal,> 100 µM
same,TGI,NCI-H522 lung,> 100 µM
same,TGI,OVCAR-5 ovarian,> 100 µM
same,TGI,UACC-257 melanoma,> 100 µM
same,TGI,HOP-92 NSCLC,> 100 µM
same,TGI,EKVX NSCLC,> 100 µM
same,TGI,UACC-62 melanoma,> 100 µM
same,TGI,786-0 renal,> 100 µM
same,TGI,SK-MEL-5 melanoma,> 100 µM
same,TGI,HCC-2998 colon,> 100 µM
same,TGI,OVCAR-8 ovarian,> 100 µM
same,TGI,NCI-H226 lung,> 100 µM
same,TGI,SW-620 colon,> 100 µM
same,TGI,LXFL 529 NSCLC,> 100 µM
same,TGI,DLD-1 colon,> 100 µM
same,TGI,MOLT-4 leukemia,> 100 µM
same,TGI,DMS 114 small cell lung,> 100 µM
same,TGI,TK-10 renal,> 100 µM
same,TGI,HOP-18 NSCLC,> 100 µM
same,TGI,SK-MEL-2 melanoma,> 100 µM
same,TGI,IGROV1 ovarian,> 100 µM
same,TGI,SN12C renal,> 100 µM
same,TGI,SNB-78 CNS,> 100 µM
same,TGI,M19-MEL melanoma,> 100 µM
same,TGI,KM12 colon,> 100 µM
same,TGI,A549 NSCLC,> 100 µM
same,TGI,COLO 205 colon,> 100 µM
same,TGI,SF-268 CNS,> 100 µM
same,TGI,CCRF-CEM leukemia,> 100 µM
same,TGI,SK-MEL-28 melanoma,> 100 µM
same,TGI,HCT-15 colon,> 100 µM
same,TGI,CAKI-1 renal,> 100 µM
same,TGI,U251 CNS,> 100 µM
same,TGI,NCI-H460 lung,> 100 µM
same,TGI,HOP-62 NSCLC,> 100 µM
same,TGI,SF-539 CNS,> 100 µM
same,TGI,XF 498 CNS,> 100 µM
same,TGI,HCT-116 colon,> 100 µM
same,TGI,DMS 273 small cell lung,> 100 µM
same,TGI,HL-60(TB) leukemia,> 100 µM
same,TGI,NCI-H23 lung,> 100 µM
same,TGI,RPMI-8226 leukemia,> 100 µM
same,TGI,SK-OV-3 ovarian,> 100 µM
same,TGI,A498 renal,> 100 µM
same,TGI,RXF-631 renal,> 100 µM
same,TGI,OVCAR-3 ovarian,> 100 µM
same,TGI,SF-295 CNS,> 100 µM
same,TGI,K-562 leukemia,> 100 µM
same,TGI,SNB-19 CNS,> 100 µM
same,TGI,ACHN renal,> 100 µM
same,TGI,LOX IMVI melanoma,> 100 µM
same,TGI,HT29 colon,> 100 µM
same,TGI,MALME-3M melanoma,> 100 µM
O=c1[nH]c2cc([N+](=O)[O-])ccc2nc1/C(=N/Nc1ccccc1)C(O)c1ccc(Cl)cc1Cl (stereo not given),TGI,OVCAR-4 ovarian,> 100 µM
same,TGI,SNB-75 CNS,> 100 µM
same,TGI,UO-31 renal,> 100 µM
same,TGI,M14 melanoma,> 100 µM
same,TGI,KM20L2 colon,> 100 µM
same,TGI,NCI-H522 lung,> 100 µM
same,TGI,OVCAR-5 ovarian,> 100 µM
same,TGI,UACC-257 melanoma,> 100 µM
same,TGI,HOP-92 NSCLC,> 100 µM
same,TGI,EKVX NSCLC,> 100 µM
same,TGI,UACC-62 melanoma,> 100 µM
same,TGI,786-0 renal,> 100 µM
same,TGI,SK-MEL-5 melanoma,> 100 µM
same,TGI,HCC-2998 colon,> 100 µM
same,TGI,OVCAR-8 ovarian,> 100 µM
same,TGI,NCI-H226 lung,> 100 µM
same,TGI,DLD-1 colon,> 100 µM
same,TGI,MOLT-4 leukemia,> 100 µM
same,TGI,DMS 114 small cell lung,44.7 µM
same,TGI,TK-10 renal,> 100 µM
same,TGI,HOP-18 NSCLC,> 100 µM
same,TGI,SK-MEL-2 melanoma,> 100 µM
same,TGI,IGROV1 ovarian,> 100 µM
same,TGI,SR leukemia,82.4 µM
same,TGI,SN12C renal,> 100 µM
same,TGI,RXF 393 renal,> 100 µM
same,TGI,SNB-78 CNS,> 100 µM
same,TGI,M19-MEL melanoma,> 100 µM
same,TGI,KM12 colon,> 100 µM
same,TGI,A549 NSCLC,> 100 µM
same,TGI,COLO 205 colon,> 100 µM
same,TGI,SF-268 CNS,> 100 µM
same,TGI,CCRF-CEM leukemia,> 100 µM
same,TGI,HCT-15 colon,> 100 µM
same,TGI,U251 CNS,> 100 µM
same,TGI,NCI-H460 lung,> 100 µM
same,TGI,HOP-62 NSCLC,> 100 µM
same,TGI,SF-539 CNS,> 100 µM
same,TGI,XF 498 CNS,> 100 µM
same,TGI,HCT-116 colon,> 100 µM
same,TGI,DMS 273 small cell lung,> 100 µM
same,TGI,HL-60(TB) leukemia,> 100 µM
same,TGI,NCI-H23 lung,> 100 µM
same,TGI,RPMI-8226 leukemia,> 100 µM
same,TGI,SK-OV-3 ovarian,> 100 µM
same,TGI,A498 renal,> 100 µM
same,TGI,RXF-631 renal,> 100 µM
same,TGI,OVCAR-3 ovarian,> 100 µM
same,TGI,SF-295 CNS,> 100 µM
same,TGI,K-562 leukemia,> 100 µM
same,TGI,ACHN renal,> 100 µM
same,TGI,LOX IMVI melanoma,> 100 µM
same,TGI,HT29 colon,> 100 µM
same,TGI,MALME-3M melanoma,> 100 µM
